Results reported in patent EP0640095B1, “PROCESS FOR MAKING VANCOMYCIN” (ABBOTT LABORATORIES, priority 1992, dated 1993).
Converted amounts (≈) assume the structure as drawn.

Assay: Solubility of vancomycin as a function of pH (base crystallization)
Assay type: physicochemical
Settings: pH 9; pH of 9.0 to 9.5
Description: Prior to the base crystallization step, the pH of the solution must be optimized to maximize the efficiency of the crystallization. […]

CN[C@H](CC(C)C)C(=O)N[C@H]1C(=O)N[C@@H](CC(N)=O)C(=O)N[C@H]2C(=O)N[C@H]3C(=O)N[C@H](C(=O)N[C@H](C(=O)O)c4cc(O)cc(O)c4-c4cc3ccc4O)[C@H](O)c3ccc(c(Cl)c3)Oc3cc2cc(c3O[C@@H]2O[C@H](CO)[C@@H](O)[C@H](O)[C@H]2O[C@H]2C[C@](C)(N)[C@H](O)[C@H](C)O2)Oc2ccc(cc2Cl)[C@H]1O [vancomycin]
solubility: 5 to 20 mg/mL (≈ 3.45 to 13.8 mM)
